Experimental data from patent publication US12247045B2, “MAP4K4 inhibitors” (Imperial College Innovations Limited, priority 2018, dated 2025).

Columns and labels:
Aurora B = Aurora B (Homo sapiens, UniProt Q96GD4); experiment: Kinase selectivity panel, Aurora B; type: biochemical; conditions: in favour of MAP4K4
Text: (§1) The data in Table 42 also provides the fold selectivity of the two compounds in favour of MAP4K4 over the tested kinase. The fold selectivity is indicated in parenthesis.

ABL1 = ABL1 (Homo sapiens, UniProt P00519); experiment: Kinase selectivity panel, ABL1; type: biochemical
Sequence of ABL1 (P00519 whole entry, species assumed): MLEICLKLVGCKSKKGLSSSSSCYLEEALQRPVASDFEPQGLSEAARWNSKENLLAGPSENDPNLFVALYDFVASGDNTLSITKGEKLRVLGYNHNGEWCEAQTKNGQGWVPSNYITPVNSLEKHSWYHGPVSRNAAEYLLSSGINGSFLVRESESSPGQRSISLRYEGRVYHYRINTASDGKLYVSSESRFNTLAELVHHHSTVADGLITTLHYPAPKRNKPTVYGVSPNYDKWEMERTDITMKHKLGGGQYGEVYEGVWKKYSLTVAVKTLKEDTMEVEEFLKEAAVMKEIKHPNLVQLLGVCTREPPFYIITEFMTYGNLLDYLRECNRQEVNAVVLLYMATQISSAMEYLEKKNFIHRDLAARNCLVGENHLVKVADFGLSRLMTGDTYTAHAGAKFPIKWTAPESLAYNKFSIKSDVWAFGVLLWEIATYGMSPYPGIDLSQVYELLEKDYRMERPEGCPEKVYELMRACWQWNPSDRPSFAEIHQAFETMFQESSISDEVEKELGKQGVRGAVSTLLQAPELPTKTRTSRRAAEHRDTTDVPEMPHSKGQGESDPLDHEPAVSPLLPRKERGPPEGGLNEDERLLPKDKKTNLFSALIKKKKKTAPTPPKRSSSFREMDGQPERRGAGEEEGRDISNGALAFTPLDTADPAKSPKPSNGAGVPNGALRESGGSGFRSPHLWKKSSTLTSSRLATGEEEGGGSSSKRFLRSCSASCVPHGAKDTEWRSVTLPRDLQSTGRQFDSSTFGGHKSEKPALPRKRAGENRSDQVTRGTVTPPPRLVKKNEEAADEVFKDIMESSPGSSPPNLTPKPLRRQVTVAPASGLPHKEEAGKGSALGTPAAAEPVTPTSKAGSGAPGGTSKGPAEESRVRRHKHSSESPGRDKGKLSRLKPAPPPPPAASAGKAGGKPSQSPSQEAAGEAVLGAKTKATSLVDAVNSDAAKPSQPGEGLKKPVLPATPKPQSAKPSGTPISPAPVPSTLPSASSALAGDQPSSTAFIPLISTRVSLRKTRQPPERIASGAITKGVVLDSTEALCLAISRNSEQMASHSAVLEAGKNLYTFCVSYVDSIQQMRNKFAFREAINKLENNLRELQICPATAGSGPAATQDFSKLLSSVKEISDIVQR
Text: as §1

MLK3/MAP3K11 = MLK3/MAP3K11 (Homo sapiens, UniProt Q16584); experiment: Kinase selectivity panel, MLK3/MAP3K11; type: biochemical
Sequence of MLK3/MAP3K11 (Q16584 whole entry): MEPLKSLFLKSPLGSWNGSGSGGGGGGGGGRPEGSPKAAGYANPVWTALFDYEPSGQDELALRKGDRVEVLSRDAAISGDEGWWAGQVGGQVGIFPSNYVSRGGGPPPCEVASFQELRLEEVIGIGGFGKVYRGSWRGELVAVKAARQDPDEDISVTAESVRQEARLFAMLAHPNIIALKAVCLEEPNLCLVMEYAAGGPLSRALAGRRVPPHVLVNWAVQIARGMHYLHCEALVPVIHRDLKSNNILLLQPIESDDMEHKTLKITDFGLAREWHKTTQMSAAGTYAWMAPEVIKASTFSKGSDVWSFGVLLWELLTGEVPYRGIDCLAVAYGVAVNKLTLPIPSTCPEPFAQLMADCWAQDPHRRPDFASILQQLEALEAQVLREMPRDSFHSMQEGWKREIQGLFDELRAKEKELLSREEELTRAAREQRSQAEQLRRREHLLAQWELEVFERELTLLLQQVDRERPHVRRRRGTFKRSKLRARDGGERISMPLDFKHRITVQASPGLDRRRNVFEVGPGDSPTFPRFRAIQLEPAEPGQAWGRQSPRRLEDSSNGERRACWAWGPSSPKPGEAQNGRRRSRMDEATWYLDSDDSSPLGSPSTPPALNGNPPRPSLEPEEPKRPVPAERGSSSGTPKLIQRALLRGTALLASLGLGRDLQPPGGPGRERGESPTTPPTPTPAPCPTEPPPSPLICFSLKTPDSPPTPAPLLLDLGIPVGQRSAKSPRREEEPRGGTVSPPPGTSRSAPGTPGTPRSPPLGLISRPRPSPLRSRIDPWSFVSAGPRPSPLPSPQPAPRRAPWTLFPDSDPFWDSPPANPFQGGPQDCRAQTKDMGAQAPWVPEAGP
Text: as §1

[1] = tested on: mice undergoing experimental myocardial infarction; experiment: Infarct size in mice undergoing experimental myocardial infarction; type: in vivo; conditions: compared to vehicle control (DMSO)
Procedure: To test if target validation and compound development in hiPSC-CMs might predict success in a whole-animal context, mice undergoing experimental myocardial infarction were treated with Ex-78 or the vehicle control (DMSO) (FIG. 6). The suppression of cardiac muscle cell death achieved roughly a 55% reduction in infarct size as a proportion of the area at ischemic risk compared to control.

GCK/MAP4K2 = molecular target: T1, GCK/MAP4K2 (Homo sapiens, UniProt Q12851); experiment: Kinase selectivity panel, GCK/MAP4K2; type: biochemical
T1 sequence (Q12851 1-820): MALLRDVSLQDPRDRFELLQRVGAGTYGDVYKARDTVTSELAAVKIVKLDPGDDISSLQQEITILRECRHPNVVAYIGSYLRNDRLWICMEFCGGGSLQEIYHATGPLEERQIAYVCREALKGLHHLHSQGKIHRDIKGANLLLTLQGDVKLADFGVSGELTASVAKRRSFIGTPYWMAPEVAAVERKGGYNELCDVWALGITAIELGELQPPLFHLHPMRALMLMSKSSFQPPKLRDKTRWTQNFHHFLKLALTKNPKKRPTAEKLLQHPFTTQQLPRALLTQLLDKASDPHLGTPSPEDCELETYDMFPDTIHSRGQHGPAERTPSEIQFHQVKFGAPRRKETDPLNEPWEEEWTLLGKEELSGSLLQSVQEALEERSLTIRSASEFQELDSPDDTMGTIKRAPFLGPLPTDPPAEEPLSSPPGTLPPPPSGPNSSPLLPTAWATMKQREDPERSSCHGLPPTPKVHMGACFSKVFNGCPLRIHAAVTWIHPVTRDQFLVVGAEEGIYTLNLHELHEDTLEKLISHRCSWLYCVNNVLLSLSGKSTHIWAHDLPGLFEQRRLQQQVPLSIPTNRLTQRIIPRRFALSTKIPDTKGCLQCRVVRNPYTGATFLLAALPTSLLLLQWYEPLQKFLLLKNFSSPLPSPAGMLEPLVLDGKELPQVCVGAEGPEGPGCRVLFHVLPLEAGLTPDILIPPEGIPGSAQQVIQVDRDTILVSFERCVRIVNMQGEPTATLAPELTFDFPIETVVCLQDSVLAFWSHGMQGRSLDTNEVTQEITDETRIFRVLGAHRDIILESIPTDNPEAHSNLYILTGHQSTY
Text: as §1

NUAK1 = molecular target: T2, NUAK1 (Homo sapiens, UniProt O60285); experiment: Kinase selectivity panel, NUAK1; type: biochemical
T2 sequence (O60285 1-661): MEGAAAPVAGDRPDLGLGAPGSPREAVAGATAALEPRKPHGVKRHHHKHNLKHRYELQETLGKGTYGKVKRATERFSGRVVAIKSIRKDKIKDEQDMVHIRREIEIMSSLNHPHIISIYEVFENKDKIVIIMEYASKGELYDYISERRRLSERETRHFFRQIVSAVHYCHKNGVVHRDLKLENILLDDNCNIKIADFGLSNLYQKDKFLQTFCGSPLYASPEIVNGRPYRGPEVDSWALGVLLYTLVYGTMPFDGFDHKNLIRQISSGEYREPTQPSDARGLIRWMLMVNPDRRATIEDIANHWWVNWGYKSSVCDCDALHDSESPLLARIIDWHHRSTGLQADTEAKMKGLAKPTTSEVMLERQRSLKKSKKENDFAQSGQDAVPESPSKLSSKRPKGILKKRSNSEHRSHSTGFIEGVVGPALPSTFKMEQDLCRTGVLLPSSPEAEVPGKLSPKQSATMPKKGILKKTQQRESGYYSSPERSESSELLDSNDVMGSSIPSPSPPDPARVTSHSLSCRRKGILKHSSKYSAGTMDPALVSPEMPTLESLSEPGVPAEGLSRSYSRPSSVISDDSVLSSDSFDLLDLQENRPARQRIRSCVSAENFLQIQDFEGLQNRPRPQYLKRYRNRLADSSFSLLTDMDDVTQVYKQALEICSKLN
Text: as §1

MLK1/MAP3K9 = MLK1/MAP3K9 (Homo sapiens, UniProt P80192); experiment: Kinase selectivity panel, MLK1/MAP3K9; type: biochemical
Sequence of MLK1/MAP3K9 (P80192 whole entry): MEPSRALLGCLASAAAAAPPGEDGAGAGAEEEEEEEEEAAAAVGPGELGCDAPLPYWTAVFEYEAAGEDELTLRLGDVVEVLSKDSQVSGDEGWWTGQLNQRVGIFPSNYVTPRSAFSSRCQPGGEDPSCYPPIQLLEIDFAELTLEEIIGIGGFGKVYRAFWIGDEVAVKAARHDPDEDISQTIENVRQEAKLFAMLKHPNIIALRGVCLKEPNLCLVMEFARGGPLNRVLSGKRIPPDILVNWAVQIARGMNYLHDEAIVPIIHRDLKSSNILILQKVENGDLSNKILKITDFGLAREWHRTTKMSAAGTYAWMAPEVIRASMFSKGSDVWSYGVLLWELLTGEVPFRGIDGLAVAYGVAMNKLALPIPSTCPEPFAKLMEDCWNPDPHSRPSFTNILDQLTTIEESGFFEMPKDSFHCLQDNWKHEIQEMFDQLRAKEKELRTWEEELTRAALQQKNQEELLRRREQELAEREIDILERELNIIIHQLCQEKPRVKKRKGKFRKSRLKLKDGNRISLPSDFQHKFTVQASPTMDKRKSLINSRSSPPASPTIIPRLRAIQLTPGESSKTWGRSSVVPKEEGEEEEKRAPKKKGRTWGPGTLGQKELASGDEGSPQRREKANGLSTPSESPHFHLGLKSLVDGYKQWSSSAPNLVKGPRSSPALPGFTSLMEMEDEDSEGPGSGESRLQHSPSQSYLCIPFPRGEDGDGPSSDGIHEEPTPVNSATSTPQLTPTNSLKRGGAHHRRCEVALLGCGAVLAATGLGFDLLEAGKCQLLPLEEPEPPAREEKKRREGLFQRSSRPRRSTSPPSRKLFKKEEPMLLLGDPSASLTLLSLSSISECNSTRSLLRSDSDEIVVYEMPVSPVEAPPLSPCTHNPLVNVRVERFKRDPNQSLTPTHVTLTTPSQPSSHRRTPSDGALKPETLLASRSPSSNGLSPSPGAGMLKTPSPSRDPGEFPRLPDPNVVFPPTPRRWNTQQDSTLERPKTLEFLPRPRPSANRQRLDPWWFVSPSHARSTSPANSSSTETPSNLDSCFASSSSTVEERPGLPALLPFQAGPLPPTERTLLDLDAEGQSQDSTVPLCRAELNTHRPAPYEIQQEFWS
Text: as §1

GLK/MAP4K3 = molecular target: T3, GLK/MAP4K3 (Homo sapiens, UniProt Q8IVH8); experiment: Kinase selectivity panel, GLK/MAP4K3; type: biochemical
T3 sequence (Q8IVH8 1-894): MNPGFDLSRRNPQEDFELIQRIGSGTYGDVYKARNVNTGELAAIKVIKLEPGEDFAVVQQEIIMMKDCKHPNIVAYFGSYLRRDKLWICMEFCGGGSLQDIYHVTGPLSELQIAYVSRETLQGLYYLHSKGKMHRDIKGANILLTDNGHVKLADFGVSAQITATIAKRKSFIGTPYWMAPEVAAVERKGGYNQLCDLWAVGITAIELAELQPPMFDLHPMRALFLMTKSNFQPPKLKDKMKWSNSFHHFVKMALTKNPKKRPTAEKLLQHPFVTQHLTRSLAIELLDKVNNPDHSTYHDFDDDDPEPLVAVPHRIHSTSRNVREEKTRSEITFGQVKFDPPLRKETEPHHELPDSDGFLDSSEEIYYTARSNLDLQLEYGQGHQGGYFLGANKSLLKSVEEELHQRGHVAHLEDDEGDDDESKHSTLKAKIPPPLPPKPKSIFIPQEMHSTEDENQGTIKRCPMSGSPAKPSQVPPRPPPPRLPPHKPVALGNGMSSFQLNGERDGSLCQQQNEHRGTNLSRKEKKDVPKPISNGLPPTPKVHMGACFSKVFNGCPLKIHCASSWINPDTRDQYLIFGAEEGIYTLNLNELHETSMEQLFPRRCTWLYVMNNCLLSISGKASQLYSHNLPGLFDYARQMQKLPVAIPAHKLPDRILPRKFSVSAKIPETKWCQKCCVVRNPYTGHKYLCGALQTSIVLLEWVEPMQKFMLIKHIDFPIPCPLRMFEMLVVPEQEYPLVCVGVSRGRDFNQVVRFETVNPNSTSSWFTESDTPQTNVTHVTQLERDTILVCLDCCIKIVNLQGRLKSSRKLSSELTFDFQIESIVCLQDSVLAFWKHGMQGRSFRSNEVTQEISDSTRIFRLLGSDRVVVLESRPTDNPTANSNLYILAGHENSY
Text: as §1

Sequence of Aurora B (Q96GD4 whole entry): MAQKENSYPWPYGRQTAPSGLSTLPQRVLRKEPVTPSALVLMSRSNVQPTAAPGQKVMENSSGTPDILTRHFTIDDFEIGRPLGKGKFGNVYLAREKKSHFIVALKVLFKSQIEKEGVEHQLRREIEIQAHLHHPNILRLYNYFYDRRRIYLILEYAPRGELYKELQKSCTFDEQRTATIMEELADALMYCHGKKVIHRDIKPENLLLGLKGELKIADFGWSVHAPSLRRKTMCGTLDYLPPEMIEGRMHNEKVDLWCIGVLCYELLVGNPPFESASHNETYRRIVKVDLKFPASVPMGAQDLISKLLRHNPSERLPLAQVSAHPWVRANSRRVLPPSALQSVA

CC(C)(O)CCOc1ccc(-c2cn(-c3cccnc3)c3nc[nH]c(=O)c23)cc1 [Ex-78, 5-(4-(3-hydroxy-3-methylbutoxy)phenyl)-7-(pyridin-3-yl)-3,7-dihydro-4H-pyrrolo[2,3-d]pyrimidin-4-one]
fold selectivity MAP4K4 over Aurora B (Aurora B): (1000) fold
fold selectivity MAP4K4 over ABL1 (ABL1; in favour of MAP4K4): (251) fold
IC50 (ABL1; read-out: pIC50 ABL1 (converted)): 7940 nM
fold selectivity MAP4K4 over MLK3/MAP3K11 (MLK3/MAP3K11; in favour of MAP4K4): (8) fold
IC50 (MLK3/MAP3K11; read-out: pIC50 MLK3/MAP3K11 (converted)): 251 nM
reduction in infarct size as a proportion of the area at ischemic risk [1]: ~55%
fold selectivity MAP4K4 over GCK/MAP4K2 (GCK/MAP4K2; in favour of MAP4K4): (32) fold
IC50 (GCK/MAP4K2; read-out: pIC50 GCK/MAP4K2 (converted)): 1000 nM
fold selectivity MAP4K4 over NUAK1 (NUAK1; in favour of MAP4K4): (16) fold
IC50 (NUAK1; read-out: pIC50 NUAK1 (converted)): 501 nM
fold selectivity MAP4K4 over MLK1/MAP3K9 (MLK1/MAP3K9; in favour of MAP4K4): (4) fold
IC50 (MLK1/MAP3K9; read-out: pIC50 MLK1/MAP3K9 (converted)): 126 nM
fold selectivity MAP4K4 over GLK/MAP4K3 (GLK/MAP4K3; in favour of MAP4K4): (50) fold
IC50 (GLK/MAP4K3; read-out: pIC50 GLK/MAP4K3 (converted)): 1580 nM
